Laboratory results from ChEMBL document CHEMBL2363022, “Malaria Box Schistosomiasis Screening Data” (2013).

Key:
Assay type in all cases: functional
Design in all cases: scale not given here
Schistosoma mansoni [1] = tested on: Schistosoma mansoni
Schistosoma mansoni [2] = tested on: Schistosoma mansoni; remark: listed apart in the source
Schistosoma mansoni [3] = tested on: Schistosoma mansoni; remark: listed apart in the source

## CN1CCN(c2nc(Nc3ccc(O)cc3)nc3ccccc23)CC1.Cl
Schistosoma mansoni [1]
  Toxicity: 0
Schistosoma mansoni [2]
  Toxicity: 0
Schistosoma mansoni [3]
  Toxicity: 0

## COc1ccccc1N1C(=N)SC(=Cc2ccc(OCc3ccccc3F)cc2)C1=O
Schistosoma mansoni [1]
  Toxicity: 0
Schistosoma mansoni [2]
  Toxicity: 0
Schistosoma mansoni [3]
  Toxicity: 0

## O=C(O)C(=O)O.Oc1ccccc1CN1CCN(C(c2ccccc2)c2ccccc2)CC1
Schistosoma mansoni [1]
  Toxicity: 0
Schistosoma mansoni [2]
  Toxicity: 0
Schistosoma mansoni [3]
  Toxicity: 0

## CC1CC2=C(CC1CNCCCN(C)C)C(C)(C)CCC2 (configuration not stated)
Schistosoma mansoni [1]
  Toxicity: 4
Schistosoma mansoni [2]
  Toxicity: 4
Schistosoma mansoni [3]
  Toxicity: 4

## CCOc1ccc(/C=C/c2nc(=O)c3ccccc3o2)cc1
Schistosoma mansoni [1]
  Toxicity: 0
Schistosoma mansoni [2]
  Toxicity: 0
Schistosoma mansoni [3]
  Toxicity: 0

## CCOC(=O)c1c(C)n(-c2ccccc2)c2ccc(OC(=O)c3cc(OC)c(OC)c(OC)c3)cc12
Schistosoma mansoni [1]
  Toxicity: 0
Schistosoma mansoni [2]
  Toxicity: 0
Schistosoma mansoni [3]
  Toxicity: 0

## CN(C)c1ccc(C=Cc2nc(=O)c3ccccc3o2)cc1
Schistosoma mansoni [1]
  Toxicity: 0
Schistosoma mansoni [2]
  Toxicity: 0
Schistosoma mansoni [3]
  Toxicity: 0

## CCOC(=O)C1=C(c2ccccc2)N=c2sc(=Cc3cc(C)n(-c4ccc(F)cc4)c3C)c(=O)n2C1c1cccc(OC)c1OC (configuration not stated)
Schistosoma mansoni [1]
  Toxicity: 0
Schistosoma mansoni [2]
  Toxicity: 0
Schistosoma mansoni [3]
  Toxicity: 0

## O=C(Nc1cccc(C2=NCCN2)c1)Nc1cccc(C2=NCCN2)c1 [IMIDOCARB]
Schistosoma mansoni [1]
  Toxicity: 0
Schistosoma mansoni [2]
  Toxicity: 0
Schistosoma mansoni [3]
  Toxicity: 0

## CCCc1c(C)nc2ccccc2c1O
Schistosoma mansoni [1]
  Toxicity: 0
Schistosoma mansoni [2]
  Toxicity: 0
Schistosoma mansoni [3]
  Toxicity: 0

## CCCCc1c(CCC)c(=N)c2ccccc2n1C.I
Schistosoma mansoni [1]
  Toxicity: 0
Schistosoma mansoni [2]
  Toxicity: 0
Schistosoma mansoni [3]
  Toxicity: 0

## Cc1cccc(Nc2nc(N)c3ccccc3n2)c1.Cl
Schistosoma mansoni [1]
  Toxicity: 2
Schistosoma mansoni [2]
  Toxicity: 0
Schistosoma mansoni [3]
  Toxicity: 0

## CN(C)c1ccc(N2C(N)=NC(N)=NC2(C)C)cc1
Schistosoma mansoni [1]
  Toxicity: 0
Schistosoma mansoni [2]
  Toxicity: 0
Schistosoma mansoni [3]
  Toxicity: 0

## Cc1cc(NC(=O)c2ccc(-c3ccccc3)cc2)no1
Schistosoma mansoni [1]
  Toxicity: 0
Schistosoma mansoni [2]
  Toxicity: 0
Schistosoma mansoni [3]
  Toxicity: 0

## Cc1ccc(C2CC(C(F)(F)F)n3nc(C(=O)N4CCN(C(c5ccccc5)c5ccccc5)CC4)cc3N2)cc1 (configuration not stated)
Schistosoma mansoni [1]
  Toxicity: 0
Schistosoma mansoni [2]
  Toxicity: 0
Schistosoma mansoni [3]
  Toxicity: 0

## Cc1ccc(-c2cc(C(=O)Nc3ccc(S(=O)(=O)N4CCCCC4)cc3)[nH]n2)c(O)c1
Schistosoma mansoni [1]
  Toxicity: 0
Schistosoma mansoni [2]
  Toxicity: 0
Schistosoma mansoni [3]
  Toxicity: 0

## Cc1ccc(Nc2nc(NCCO)c3ccccc3n2)cc1C
Schistosoma mansoni [1]
  Toxicity: 1
Schistosoma mansoni [2]
  Toxicity: 0
Schistosoma mansoni [3]
  Toxicity: 1

## CCOc1cccc(C(=O)Nc2ccc(-c3nc4ccccc4[nH]3)cc2)c1
Schistosoma mansoni [1]
  Toxicity: 0
Schistosoma mansoni [2]
  Toxicity: 0
Schistosoma mansoni [3]
  Toxicity: 2

## Nc1nc(Nc2cccc(F)c2)nc2ccccc12
Schistosoma mansoni [1]
  Toxicity: 0
Schistosoma mansoni [2]
  Toxicity: 0
Schistosoma mansoni [3]
  Toxicity: 0

## CC(O)(c1ccc(Cl)cc1)C(CN1CCCCC1)c1ccccc1.Cl (configuration not stated)
Schistosoma mansoni [1]
  Toxicity: 0
Schistosoma mansoni [2]
  Toxicity: 0
Schistosoma mansoni [3]
  Toxicity: 0

## COc1ccc(-n2ccnc2SCC(=O)Nc2cc(C)ccc2C)c(OC)c1
Schistosoma mansoni [1]
  Toxicity: 1
Schistosoma mansoni [2]
  Toxicity: 1
Schistosoma mansoni [3]
  Toxicity: 1

## O=C1c2ccc3c4c(ccc(c24)C(=O)N1CCCCO)C(=O)N(CCCCO)C3=O
Schistosoma mansoni [1]
  Toxicity: 0
Schistosoma mansoni [2]
  Toxicity: 0
Schistosoma mansoni [3]
  Toxicity: 4

## O=C(NC1CCN(Cc2ccccc2)CC1)c1cc(-c2cccnc2)nc2ccc(Cl)cc12
Schistosoma mansoni [1]
  Toxicity: 0
Schistosoma mansoni [2]
  Toxicity: 0
Schistosoma mansoni [3]
  Toxicity: 0

## COC(=O)c1ccc(C2C3=C(O)CC(c4ccc(F)cc4)CC3=Nc3ccccc3N2C(=O)c2ccccc2)cc1 (configuration not stated)
Schistosoma mansoni [1]
  Toxicity: 0
Schistosoma mansoni [2]
  Toxicity: 2
Schistosoma mansoni [3]
  Toxicity: 1

## COCCNC(=O)c1ccc(OC2CCN(Cc3ccc(F)c(F)c3)CC2)c(Cl)c1
Schistosoma mansoni [1]
  Toxicity: 0
Schistosoma mansoni [2]
  Toxicity: 0
Schistosoma mansoni [3]
  Toxicity: 0

## O=C(NCc1ccco1)C1CCN(S(=O)(=O)c2ccc(Br)cc2)CC1
Schistosoma mansoni [1]
  Toxicity: 0
Schistosoma mansoni [2]
  Toxicity: 0
Schistosoma mansoni [3]
  Toxicity: 0

## OC1=C2C(=Nc3ccccc3SC2c2ccccc2)c2ccccc21 (configuration not stated)
Schistosoma mansoni [1]
  Toxicity: 0
Schistosoma mansoni [2]
  Toxicity: 0
Schistosoma mansoni [3]
  Toxicity: 0

## CCCCCCc1cc2cc(-c3nc4ccccc4[nH]3)c(=Nc3ccccc3C)oc2cc1O
Schistosoma mansoni [1]
  Toxicity: 0
Schistosoma mansoni [2]
  Toxicity: 3
Schistosoma mansoni [3]
  Toxicity: 3

## COc1ccc(C(=O)Nc2nonc2-c2ccc(OC)c(OC)c2)cc1Cl
Schistosoma mansoni [1]
  Toxicity: 0
Schistosoma mansoni [2]
  Toxicity: 0
Schistosoma mansoni [3]
  Toxicity: 0

## CCCn1c(=N)c(C(=O)NC2CCCCC2)cc2c(=O)n3cccc(C)c3nc21
Schistosoma mansoni [1]
  Toxicity: 0
Schistosoma mansoni [2]
  Toxicity: 0
Schistosoma mansoni [3]
  Toxicity: 0

## Cc1ccc(-c2cc3c(SCC(=O)Nc4cc(C(F)(F)F)ccc4Cl)nccn3n2)cc1
Schistosoma mansoni [1]
  Toxicity: 0
Schistosoma mansoni [2]
  Toxicity: 0
Schistosoma mansoni [3]
  Toxicity: 0

## CCCCCCC(O)(c1ccc(F)cc1)C(CN1CCOCC1)c1ccccc1.Cl (configuration not stated)
Schistosoma mansoni [1]
  Toxicity: 0
Schistosoma mansoni [2]
  Toxicity: 0
Schistosoma mansoni [3]
  Toxicity: 0

## COc1ccc(CCNC(=O)c2cc(S(=O)(=O)N3CC(C)CC(C)C3)ccc2Sc2ccc(F)cc2)cc1OC (configuration not stated)
Schistosoma mansoni [1]
  Toxicity: 4
Schistosoma mansoni [2]
  Toxicity: 4
Schistosoma mansoni [3]
  Toxicity: 4

## COc1ccccc1C(=O)ON=C(N)Cc1cccc2ccccc12
Schistosoma mansoni [1]
  Toxicity: 1
Schistosoma mansoni [2]
  Toxicity: 3
Schistosoma mansoni [3]
  Toxicity: 3

## O=C(O)C1Cc2c([nH]c3ccccc23)C(c2ccc(Cl)cc2Cl)N1 (configuration not stated)
Schistosoma mansoni [1]
  Toxicity: 0
Schistosoma mansoni [2]
  Toxicity: 0
Schistosoma mansoni [3]
  Toxicity: 0

## COc1cc(CNCCc2ccc(Cl)cc2)cc(OC)c1O
Schistosoma mansoni [1]
  Toxicity: 0
Schistosoma mansoni [2]
  Toxicity: 0
Schistosoma mansoni [3]
  Toxicity: 0

## c1ccc(-c2ccc(-c3nc4ccccc4[nH]3)cc2)cc1
Schistosoma mansoni [1]
  Toxicity: 0
Schistosoma mansoni [2]
  Toxicity: 0
Schistosoma mansoni [3]
  Toxicity: 0

## CCOC(=O)c1cnc2c(C)cc(C)cc2c1Nc1ccc(OC)c(OC)c1
Schistosoma mansoni [1]
  Toxicity: 0
Schistosoma mansoni [2]
  Toxicity: 2
Schistosoma mansoni [3]
  Toxicity: 0

## CCOC(=O)c1cnc2ccc(CC)cc2c1O
Schistosoma mansoni [1]
  Toxicity: 0
Schistosoma mansoni [2]
  Toxicity: 0
Schistosoma mansoni [3]
  Toxicity: 0

## Cc1nc2ccccc2c(O)c1CC=C(Cl)Cl
Schistosoma mansoni [1]
  Toxicity: 0
Schistosoma mansoni [2]
  Toxicity: 0
Schistosoma mansoni [3]
  Toxicity: 0

## FC(F)(F)c1ccc(Nc2nnnc3ccccc23)cc1
Schistosoma mansoni [1]
  Toxicity: 1
Schistosoma mansoni [2]
  Toxicity: 0
Schistosoma mansoni [3]
  Toxicity: 0

## O=C(Nc1ccsc1C(=O)NC1CCCCC1)c1ccc(F)cc1
Schistosoma mansoni [1]
  Toxicity: 2
Schistosoma mansoni [2]
  Toxicity: 0
Schistosoma mansoni [3]
  Toxicity: 0

## COc1ccc(C)c2sc(N(Cc3cccnc3)C(=O)c3ccc(C#N)cc3)nc12
Schistosoma mansoni [1]
  Toxicity: 0
Schistosoma mansoni [2]
  Toxicity: 0
Schistosoma mansoni [3]
  Toxicity: 0

## CCC1(C)CC(CCNCc2ccccc2O)(c2ccc(C)cc2)CCO1 (configuration not stated)
Schistosoma mansoni [1]
  Toxicity: 2
Schistosoma mansoni [2]
  Toxicity: 2
Schistosoma mansoni [3]
  Toxicity: 4

## O=C1CC(O)(C(F)(F)C(F)(F)F)Oc2ccccc21 (configuration not stated)
Schistosoma mansoni [1]
  Toxicity: 0
Schistosoma mansoni [2]
  Toxicity: 0
Schistosoma mansoni [3]
  Toxicity: 1

## COc1ccc(C(=O)NC(c2ccccc2Cl)c2cc(Cl)c3cccnc3c2O)cc1 (configuration not stated)
Schistosoma mansoni [1]
  Toxicity: 0
Schistosoma mansoni [2]
  Toxicity: 2
Schistosoma mansoni [3]
  Toxicity: 4

## COc1cccc(Cn2c(Oc3ccccc3)nc3c2c(=O)n(C)c(=O)n3C)c1
Schistosoma mansoni [1]
  Toxicity: 0
Schistosoma mansoni [2]
  Toxicity: 0
Schistosoma mansoni [3]
  Toxicity: 0

## Cc1cc(Nc2ccc(C)c(Cl)c2)n2nc(C(F)(F)F)nc2n1
Schistosoma mansoni [1]
  Toxicity: 0
Schistosoma mansoni [2]
  Toxicity: 0
Schistosoma mansoni [3]
  Toxicity: 0

## COc1ccc(C(=O)C(CCC(CNC(C)(C)C)C(=O)c2ccc(OC)cc2)CNC(C)(C)C)cc1 (configuration not stated)
Schistosoma mansoni [1]
  Toxicity: 0
Schistosoma mansoni [2]
  Toxicity: 3
Schistosoma mansoni [3]
  Toxicity: 4
